Measured values from patent US20240174674A1, “NITROGEN-CONTAINING POLYCYCLIC FUSED RING COMPOUND, PHARMACEUTICAL COMPOSITION THEREOF, PREPARATION METHOD THEREFOR, AND USE THEREOF” (APPLIED PHARMACEUTICAL SCIENCE, INC., priority 2021, published 2024).

Columns and labels:
[1] = target: RET V804M (Homo sapiens (Human), UniProt P07949, V804M); assay: HTRF KinEASE-TK kinase activity test, RET V804M; type: biochemical; settings: for IC50: HTRF kinase assay; for inhibitory activity against RET V804M compared to that of cabozantinib: versus cabozantinib
[2] = target: RET G810R (Homo sapiens (Human), UniProt P07949, G810R); assay: HTRF KinEASE-TK kinase activity test, RET G810R; settings: for inhibitory activity against RET G810R relative to that of selpercatinib (LOXO-292): fold versus selpercatinib (LOXO-292); for IC50: read-out: RET G810R IC50, HTRF kinase assay
[3] = target: RET-wt (Homo sapiens (Human), UniProt P07949); assay: HTRF KinEASE-TK kinase activity test, RET-wt; type: biochemical; settings: for IC50: HTRF kinase assay; for inhibitory activity against RET-wt compared to that of cabozantinib: versus cabozantinib
RET-wt, sequence (P07949 29-1114): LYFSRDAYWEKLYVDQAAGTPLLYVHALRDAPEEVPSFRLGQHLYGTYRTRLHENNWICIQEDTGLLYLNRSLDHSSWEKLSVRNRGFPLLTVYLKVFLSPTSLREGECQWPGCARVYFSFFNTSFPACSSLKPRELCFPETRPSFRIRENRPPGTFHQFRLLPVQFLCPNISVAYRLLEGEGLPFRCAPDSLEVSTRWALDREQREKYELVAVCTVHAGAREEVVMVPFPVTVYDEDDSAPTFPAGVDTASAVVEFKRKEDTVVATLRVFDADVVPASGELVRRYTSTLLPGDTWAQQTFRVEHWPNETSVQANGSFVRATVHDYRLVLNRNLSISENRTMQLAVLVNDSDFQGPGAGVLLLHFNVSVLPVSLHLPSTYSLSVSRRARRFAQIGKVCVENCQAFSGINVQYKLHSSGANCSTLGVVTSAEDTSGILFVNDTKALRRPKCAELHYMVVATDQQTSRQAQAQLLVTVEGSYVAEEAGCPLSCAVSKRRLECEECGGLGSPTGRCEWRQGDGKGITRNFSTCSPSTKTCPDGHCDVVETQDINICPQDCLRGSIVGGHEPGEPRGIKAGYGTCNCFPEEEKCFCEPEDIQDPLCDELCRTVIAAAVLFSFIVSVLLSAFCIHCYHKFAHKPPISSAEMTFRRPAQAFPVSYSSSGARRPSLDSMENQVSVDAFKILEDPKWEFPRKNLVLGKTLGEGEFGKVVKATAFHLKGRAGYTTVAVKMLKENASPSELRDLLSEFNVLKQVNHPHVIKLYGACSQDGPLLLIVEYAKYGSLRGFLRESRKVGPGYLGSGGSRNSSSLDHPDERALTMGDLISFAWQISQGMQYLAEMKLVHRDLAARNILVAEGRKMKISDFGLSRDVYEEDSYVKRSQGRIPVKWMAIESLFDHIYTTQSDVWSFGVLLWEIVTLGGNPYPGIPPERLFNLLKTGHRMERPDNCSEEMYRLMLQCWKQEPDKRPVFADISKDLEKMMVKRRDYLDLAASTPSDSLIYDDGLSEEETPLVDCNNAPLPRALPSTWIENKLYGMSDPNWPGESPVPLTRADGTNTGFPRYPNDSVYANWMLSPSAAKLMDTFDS

RET G810R, sequence (P07949 29-1114 G810R): as the sequence (P07949 29-1114) above, with G782R counted along it
RET V804M, sequence (P07949 29-1114 V804M): as the sequence (P07949 29-1114) above, with V776M counted along it

| IC50 [1] [nM] | inhibitory activity against RET V804M compared to that of cabozantinib [1] | inhibitory activity against RET G810R relative to that of selpercatinib (LOXO-292) [2] [times] | IC50 [2] [nM] | IC50 [3] [nM] | inhibitory activity against RET-wt compared to that of cabozantinib [3] | SMILES |
| --- | --- | --- | --- | --- | --- | --- |
| 0.06 | significantly superior | ≥ 10 | 1.6 | 0.1 | significantly superior | CCOc1cc(-c2ccc(N3CC[C@H](NC(=O)c4cc(F)ccc4C)[C@@H](O)C3)nc2)c2c3cn[nH]c3nn2c1 [Compound 46] |
| 0.1 | significantly superior | ≥ 10 | 0.36 | 0.1 | significantly superior | CCOc1cc(-c2ccc(N3CCC(CO)(NC(=O)c4c(F)cccc4F)CC3)nc2)c2c3cn[nH]c3nn2c1 [Compound 11, N-(1-(5-(6-ethoxy-1H-pyrazolo[3′,4′:3,4]pyrazolo[1,5-α]pyridin-4-yl)pyridin-2-yl)-4-(hydroxymethyl)piperidin-4-yl)-2,6-difluorobenzamide] |
| 0.05 | significantly superior | ≥ 10 | 1.4 | 0.1 | significantly superior | CCOc1cc(-c2ccc(N3CC[C@H](NC(=O)c4ncccc4Cl)[C@H](O)C3)nc2)c2c3cn[nH]c3nn2c1 [Compound 42] |
| 0.1 | significantly superior | ≥ 10 | 0.8 | 0.1 | significantly superior | CCOc1cc(-c2ccc(N3CC[C@H](NC(=O)c4c(F)cccc4Cl)[C@@H](O)C3)nc2)c2c3cn[nH]c3nn2c1 [Compound 44, 2-chloro-N-((3S,4S)-1-(5-(6-ethoxy-1H-pyrazolo[3′,4′:3,4]pyrazolo[1,5-α]pyridin-4-yl)pyridin-2-yl)-3-hydroxypiperidin-4-yl)-6-fluorobenzamide] |
| 0.1 | significantly superior |  | 4.2 | 0.1 | significantly superior | CCOc1cc(-c2ccc(N3CC[C@H](NC(=O)CC(C)C)[C@@H](O)C3)nc2)c2c3cn[nH]c3nn2c1 [Compound 39] |
| 0.2 | significantly superior |  | 7.8 | 0.1 | significantly superior | CCOc1cc(-c2ccc(N3CC[C@H](NC(=O)OC(C)(C)C)[C@@H](O)C3)nc2)c2c3cn[nH]c3nn2c1 [Compound 88, Tert-butyl ((3S,4S)-1-(5-(6-ethoxy-1H-pyrazolo[3′,4′:3,4]pyrazolo[1,5-α]pyridin-4-yl)pyridin-2-yl)-3-hydroxypiperidin-4-yl)carbamate] |
| 0.1 | significantly superior | ≥ 10 | 2.8 | 0.1 | significantly superior | CCOc1cc(-c2ccc(N3CC[C@H](NC(=O)C4(C(F)(F)F)CCC4)[C@@H](O)C3)nc2)c2c3cn[nH]c3nn2c1 [Compound 41] |
|  |  | ≥ 10 | 2.2 |  |  | CCOc1cc(-c2cnc(N3CC[C@H](NC(=O)c4cc(F)ccc4Cl)[C@@H](O)C3)cn2)c2c3cn[nH]c3nn2c1 [Compound 91] |
|  |  |  | 4.3 |  |  | CCOc1cc(-c2cnc(N3CC[C@H](NC(=O)c4c(F)cccc4Cl)[C@@H](O)C3)cn2)c2c3cn[nH]c3nn2c1 [Compound 51] |
|  |  |  | 4.9 |  |  | CCOc1cc(-c2ccc(N3CCC(S(=O)(=O)Cc4ccccc4)CC3)nc2)c2c3cn[nH]c3nn2c1 [Compound 34] |
|  |  | ≥ 10 | 0.7 |  |  | CCOc1cc(-c2ccc(N3CC[C@H](NC(=O)c4cc(F)ccc4Cl)[C@H](O)C3)nc2)c2c3cn[nH]c3nn2c1 [Compound 276, 2-chloro-N-((3R,4S)-1-(5-(6-ethoxy-1H-pyrazolo[3′,4′:3,4]pyrazolo[1,5-α]pyridin-4-yl)pyridin-2-yl)-3-hydroxypiperidin-4-yl)-5-fluorobenzamide] |
|  |  |  | 4.1 |  |  | CCOc1cc(-c2ccc(N3CC[C@H](NC(=O)c4c(F)cccc4F)[C@@H](O)C3)nc2)c2c3cn[nH]c3nn2c1 [Compound 294, N-((3S,4S)-1-(5-(6-ethoxy-1H-pyrazolo[3′,4′:3,4]pyrazolo[1,5-α]pyridin-4-yl)pyridin-2-yl)-3-hydroxypiperidin-4-yl)-2,6-difluorobenzamide] |
|  |  |  | 23.6 |  |  | CCOc1cc(-c2cnc(N3CCC(C)(NC(=O)c4nc(C)ccc4Cl)CC3)cn2)c2c3cn[nH]c3nn2c1 [Compound 56] |
|  |  |  | 5.7 |  |  | CCOc1cc(-c2ccc(N3CCC(CN4CCC4)(C(=O)NCC(C)C)CC3)nc2)c2c3cn[nH]c3nn2c1 [Compound 36, 4-(azetidin-1-ylmethyl)-1-(5-(6-ethoxy-1H-pyrazolo[3′,4′:3,4]pyrazolo[1,5-α]pyridin-4-yl)pyridin-2-yl)-N-isobutylpiperidine-4-carboxamide] |
|  |  | ≥ 10 | 0.9 |  |  | CCOc1cc(-c2ccc(N3CC[C@H](NC(=O)c4c(C)cccc4Cl)[C@H](O)C3)nc2)c2c3cn[nH]c3nn2c1 [Compound 278, 2-chloro-N-((3R,4S)-1-(5-(6-ethoxy-1H-pyrazolo[3′,4′:3,4]pyrazolo[1,5-α]pyridin-4-yl)pyridin-2-yl)-3-hydroxypiperidin-4-yl)-6-methylbenzamide] |
|  |  |  | 9.9 |  |  | CCOc1cc(-c2ccc(N3CC[C@H](NC(=O)C(C)C(C)C)[C@H](O)C3)nc2)c2c3cn[nH]c3nn2c1 (stereo partly drawn) [Compound 283, N-((3R,4S)-1-(5-(6-ethoxy-1H-pyrazolo[3′,4′:3,4]pyrazolo[1,5-α]pyridin-4-yl)pyridin-2-yl)-3-hydroxypiperidin-4-yl)-2,3-dimethylbutanamide] |
|  |  | ≥ 10 | 2.5 |  |  | CCOc1cc(-c2ccc(N3CCC(C)(S(=O)(=O)CC(C)C)CC3)nc2)c2c3cn[nH]c3nn2c1 [Compound 33, 6-ethoxy-4-(6-(4-(isobutylsulfonyl)-4-methylpiperidin-1-yl)pyridin-3-yl)-1H-pyrazolo[3′,4′:3,4]p yrazolo[1,5-α]pyridine] |
|  |  |  | 4.1 |  |  | CCOc1cc(-c2ccc(N3CCC4(CC3)CCN4C(=O)c3c(F)cccc3Cl)nc2)c2c3cn[nH]c3nn2c1 [Compound 201, N-(7-(5-(6-ethoxy-1H-pyrazolo[3′,4′:3,4]pyrazolo[1,5-α]pyridin-4-yl)pyridin-2-yl)-1,7-diazaspiro [3.5]nonan-1-yl)-2-chloro-6-fluorobenzamide] |
|  |  | ≥ 10 | 0.96 |  |  | CCOc1cc(-c2ccc(N3CC[C@H](NC(=O)c4c(F)cccc4F)[C@H](O)C3)nc2)c2c3cn[nH]c3nn2c1 [Compound 233] |
|  |  |  | 20.8 |  |  | CCOc1cc(-c2ccc(N3CCN(Cc4ccc(OC)nc4)C(CN(C)C)C3)nc2)c2c3cn[nH]c3nn2c1 (stereo not drawn) [Compound 245, 1-(4-(5-(6-ethoxy-1H-pyrazolo[3′,4′:3,4]pyrazolo[1,5-α]pyridin-4-yl)pyridin-2-yl)-1-((6-methoxypyridin-3-yl)methylene)piperazin-2-yl)-N,N-dimethylmethanamine] |
|  |  | ≥ 10 | 3.5 |  |  | CCOc1cc(-c2ccc(N3CC[C@H](NC(=O)C4(F)CC4)[C@H](O)C3)nc2)c2c3cn[nH]c3nn2c1 [Compound 282, N-((3R,4S)-1-(5-(6-ethoxy-1H-pyrazolo[3′,4′:3,4]pyrazolo[1,5-α]pyridin-4-yl)pyridin-2-yl)-3-hydroxypiperidin-4-yl)-1-fluorocyclopropane-1-carboxamide] |
|  |  | ≥ 10 | 2.2 |  |  | CCOc1cc(-c2ccc(N3CC[C@H](NC(=O)c4ccccc4C(F)(F)F)[C@H](O)C3)nc2)c2c3cn[nH]c3nn2c1 [Compound 279, N-((3R,4S)-1-(5-(6-ethoxy-1H-pyrazolo[3′,4′:3,4]pyrazolo[1,5-α]pyridin-4-yl)pyridin-2-yl)-3-hydroxypiperidin-4-yl)-2-(trifluoromethyl)benzamide] |
|  |  | ≥ 10 | 1.5 |  |  | CCOc1cc(-c2ccc(N3CCC(CN(C)C)(NC(=O)c4ncccc4Cl)CC3)nc2)c2c3cn[nH]c3nn2c1 [Compound 15, 3-chloro-N-(4-((2-dimethylamino)methyl)-1-(5-(6-ethoxy-1H-pyrazolo[3′,4′:3,4]pyrazolo[1,5-α]pyridin-4-yl)pyridin-2-yl)piperidin-4-yl)picolinamide] |

| SMILES | IC50 [1] [nM] | inhibitory activity against RET V804M compared to that of cabozantinib [1] | inhibitory activity against RET G810R relative to that of selpercatinib (LOXO-292) [2] [times] | IC50 [2] [nM] | IC50 [3] [nM] | inhibitory activity against RET-wt compared to that of cabozantinib [3] |
| --- | --- | --- | --- | --- | --- | --- |
| COc1ccc(CN2C3CC2CN(c2ccc(-c4cc(P(C)(C)=O)cn5nc6[nH]ncc6c45)cn2)C3)cn1 [Compound 237, (4-(6-(6-((6-methoxypyridin-3-yl)methyl)-3,6-diazabicyclo[3.1.1]heptan-3-yl)pyridin-3-yl)-1H-pyrazolo[3′,4′:3,4]pyrazolo[1,5-α]pyridin-6-yl)dimethylphosphine oxide] |  |  |  | 112 |  |  |
| CCOc1cc(-c2ccc(N3CC4COCC(C3)N4Cc3ccc(OC)nc3)nc2)c2c3cn[nH]c3nn2c1 [Compound 114, 7-(5-(6-ethoxy-1H-pyrazolo[3′,4′:3,4]pyrazolo[1,5-α]pyridin-4-yl)pyridin-2-yl)-9-((6-methoxypyridin-3-yl)methylene)-3-oxa-7,9-diazabicyclo[3.3.1]nonane] |  |  | ≥ 10 | 3.6 |  |  |
